Measured values from patent publication US10214544B2, “Imidazopyridazine and imidazothiadiazole compounds” (Universite de Montreal, priority 2015, dated 2019).
No end group written: not given here.

What follows are compounds tested against PAR4 (Homo sapiens (Human), UniProt Q96RI0) (assay: FLIPR assay in PAR4-expressing HEK293 cells (PAR4 antagonist activity)). Conditions: inhibition of H-Ala-Phe(4-F)-Pro-Gly-Trp-Leu-Val-Lys-Asn-Gly-NH2-induced intracellular calcium mobilization.
Type: cell-based
Excerpt: The FLIPR assay is an exemplary in vitro assay for measuring the activity of the PAR4 antagonists of the present invention. In this assay, intracellular calcium mobilization is induced in PAR4 expressing cells by a PAR4 agonist and calcium mobilization is monitored. See, e.g., Example A.
(§1) HEK293 cells stably expressing PAR4 were generated by a standard method of transfection of human PAR4 (F2R23) cDNA expression vector and selected based on PAR4 protein expression or mRNA expression. […] These cells also express endogenous PAR1 and can elicit calcium signal upon stimulation with PAR1 agonist peptide. Therefore, the same cells were also used to determine selectivity against PAR1 and agonist activity for both receptors. Cells from HEK293 PAR4 Clone 1.2A (BMS Arctic ID 383940) were propagated and used for calcium mobilization studies.
FLIPR-based calcium mobilization assay in HEK293 cells was used to measure PAR4 antagonism, agonism, and selectivity against PAR1. The activity of the PAR4 antagonists of the present invention were tested in PAR4 expressing cells by monitoring H-Ala-Phe(4-F)-[…]NH2-induced intracellular calcium mobilization. Counter screens for agonist activity and PAR1 antagonist activity were also performed. Briefly, PAR1/PAR4-expressing HEK293 cells were grown in DMEM (Life Technology, Grand Island, N.Y.) containing 10% heat-inactivated FBS, 1% Penicillin-Streptomycin, 10 μg/mL blasticidin, and 100 μg/mL Zeocin at 37° C. with 5% CO2. Cells were plated overnight prior to the experiment in a black 384-well Purecoat Amine clear bottom plate (Becton Dickinson Biosciences, San Jose, Calif.) at 10,000 cells/well in 30 μL growth medium and incubated in a humidified chamber at 37° C. with 5% CO2 overnight. Prior to compound addition, the cell medium was replaced with […] of 1× calcium and magnesium-containing Hank's Balanced Saline Solution (HBSS) (with 20 mM HEPES) and 1:1000 diluted fluorescent calcium indicator (Codex Biosolutions, Gaithersburg, Md.). After a 30 minute incubation period at 37° C. and a further 30 minute incubation and equilibration period at room temperature, 20 μL test compound (diluted in 1× HBSS buffer) was added at various concentrations at 0.17% dimethyl sulfoxide (DMSO) final concentration. Changes in fluorescence intensity were measured using a Functional Drug Screening System (FDSS, Hamamatsu, Japan) to determine agonist activities. The cells were then incubated for 30 minutes at room temperature followed by addition of 20 μL of agonist peptide for antagonist activity measurement. […] Compound potency was derived from 11-point concentration-response curves.
The following Table sets out results obtained employing various compounds of the invention tested in the FLIPR assay. As indicated above, the FLIPR assay, an in vitro assay, measures the PAR4 antagonist activity of compounds tested as described in Example A.

Sequence of PAR4 (Q96RI0 18-385): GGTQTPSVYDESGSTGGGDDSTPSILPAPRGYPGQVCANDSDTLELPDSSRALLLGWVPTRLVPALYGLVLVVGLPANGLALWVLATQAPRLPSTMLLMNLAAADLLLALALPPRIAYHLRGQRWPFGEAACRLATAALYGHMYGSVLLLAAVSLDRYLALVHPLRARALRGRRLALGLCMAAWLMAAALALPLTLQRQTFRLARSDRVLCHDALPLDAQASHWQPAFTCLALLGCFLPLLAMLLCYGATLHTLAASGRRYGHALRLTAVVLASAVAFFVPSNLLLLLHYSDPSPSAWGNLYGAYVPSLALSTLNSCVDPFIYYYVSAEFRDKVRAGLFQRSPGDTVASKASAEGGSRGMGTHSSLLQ

Compound	EC50
COc1cc(OCc2ccc3c(c2)N(C(=O)c2csc(-c4ccccc4)n2)CC3)c2cc(-c3cn4nc(OC)sc4n3)oc2c1 [Example 112]	0.55 nM
COc1cc(OCc2cccc3c2CCN3)c2cc(-c3cn4nc(OC)sc4n3)oc2c1 [Example 114, 6-(4-(Indolin-4-ylmethoxy)-6-methoxybenzofuran-2-yl)-2-methoxyimidazo[2,1-b][1,3,4]thiadiazole]	37 nM
COc1cc(OCc2cccc3c2CCN3C(=O)c2ccccc2)c2cc(-c3cn4nc(OC)sc4n3)oc2c1 [Example 115, (4-(((6-Methoxy-2-(2-methoxyimidazo[2,1-b][1,3,4]thiadiazol-6-yl)benzofuran-4-yl)oxy)methyl)indolin-1-yl)(phenyl)methanone]	96 nM
COc1cc(OCc2cccc3c2CCN3C(=O)c2ccc(F)cc2)c2cc(-c3cn4nc(OC)sc4n3)oc2c1 [Example 116]	140 nM
COc1cc(OCc2cccc3c2CCN3C(C)=O)c2cc(-c3cn4nc(OC)sc4n3)oc2c1 [Example 117]	> 3300 nM
COc1cc(OCc2cccc3c2CCN3C(=O)c2csc(C(F)(F)F)n2)c2cc(-c3cn4nc(OC)sc4n3)oc2c1 [Example 118]	16 nM
COc1cc(OCc2cccc3c2CCN3C(=O)c2csc(-c3ccccc3)n2)c2cc(-c3cn4nc(OC)sc4n3)oc2c1 [Example 119]	1700 nM
COc1cc(OCc2cccc3c2CCN3C(=O)c2ccccc2F)c2cc(-c3cn4nc(OC)sc4n3)oc2c1 [Example 120]	4.2 nM
COc1cc(OCc2cccc3c2CCN3C(=O)c2cccc(F)c2)c2cc(-c3cn4nc(OC)sc4n3)oc2c1 [Example 121]	140 nM
COc1cc(OCc2cccc3c2CCN3C(=O)c2ccccc2C)c2cc(-c3cn4nc(OC)sc4n3)oc2c1 [Example 122]	5 nM
COc1cc(OCc2cccc3c2CCN3C(=O)c2ccc(C)cc2)c2cc(-c3cn4nc(OC)sc4n3)oc2c1 [Example 123]	5 nM
COc1cc(OCc2cccc3c2CCN3C(=O)c2ccccc2OC)c2cc(-c3cn4nc(OC)sc4n3)oc2c1 [Example 124]	190 nM
COc1cc(OCc2cccc3c2CCN3C(=O)c2cc(C)cc(C(F)(F)F)c2)c2cc(-c3cn4nc(OC)sc4n3)oc2c1 [Example 125]	3.9 nM
COc1cc(OCc2cccc3c2CCN3C(=O)c2cncnc2)c2cc(-c3cn4nc(OC)sc4n3)oc2c1 [Example 126]	260 nM
COc1cc(OCc2cccc3c2CCN3C(=O)c2ccc(OC)nc2)c2cc(-c3cn4nc(OC)sc4n3)oc2c1 [Example 127]	2.9 nM
COc1cc(OCc2cccc3c2CCN3C(=O)c2ccnnc2)c2cc(-c3cn4nc(OC)sc4n3)oc2c1 [Example 128]	> 3300 nM
COc1cc(OCc2cccc3c2CCN3C(=O)c2sc(C)nc2C)c2cc(-c3cn4nc(OC)sc4n3)oc2c1 [Example 129]	4.2 nM
COc1cc(OCc2cccc3c2CCN3C(=O)c2cc(OC(F)F)cc(C(F)(F)F)c2)c2cc(-c3cn4nc(OC)sc4n3)oc2c1 [Example 130]	5.2 nM
COc1cc(OCc2cccc(NC(=O)c3cccn3C)c2)c2cc(-c3cn4nc(OC)sc4n3)oc2c1 [Example 132]	3.8 nM
COc1cc(OCc2cccc(NC(=O)c3cnccn3)c2)c2cc(-c3cn4nc(OC)sc4n3)oc2c1 [Example 133]	2.7 nM
COc1cc(OCc2cccc(NC(=O)c3ccco3)c2)c2cc(-c3cn4nc(OC)sc4n3)oc2c1 [Example 134]	5 nM
COc1cc(OCc2cccc(NC(=O)Cc3ccccc3)c2)c2cc(-c3cn4nc(OC)sc4n3)oc2c1 [Example 135]	5 nM
COc1cc(OCc2cccc(NC(=O)C(C)C)c2)c2cc(-c3cn4nc(OC)sc4n3)oc2c1 [Example 136]	3.9 nM
COc1cc(OC)cc(C(=O)Nc2cccc(COc3cc(OC)cc4oc(-c5cn6nc(OC)sc6n5)cc34)c2)c1 [Example 137]	3.4 nM
COc1cc(OCc2cccc(NC(=O)CC3CCCC3)c2)c2cc(-c3cn4nc(OC)sc4n3)oc2c1 [Example 138]	2.5 nM
COc1cc(OCc2cccc(NC(=O)c3ccccn3)c2)c2cc(-c3cn4nc(OC)sc4n3)oc2c1 [Example 139]	2.7 nM
COc1cc(OCc2cccc(NC(=O)c3cc(C(F)(F)F)ccc3F)c2)c2cc(-c3cn4nc(OC)sc4n3)oc2c1 [Example 140]	1.5 nM

Compound	EC50
COc1cc(OCc2cccc(NC(=O)c3ccc(F)cc3C(F)(F)F)c2)c2cc(-c3cn4nc(OC)sc4n3)oc2c1 [Example 141]	1.9 nM
COc1cc(OCc2cccc(NC(=O)c3cc(F)cc(C(F)(F)F)c3)c2)c2cc(-c3cn4nc(OC)sc4n3)oc2c1 [Example 142]	1.3 nM
COc1cc(OCc2cccc(NC(=O)c3c(F)cccc3F)c2)c2cc(-c3cn4nc(OC)sc4n3)oc2c1 [Example 143]	5.9 nM
COc1cc(OCc2cccc(NC(=O)c3cccc(N(C)C)c3)c2)c2cc(-c3cn4nc(OC)sc4n3)oc2c1 [Example 144]	3.8 nM
COc1cc(OCc2cccc(NC(=O)C3CCCC3)c2)c2cc(-c3cn4nc(OC)sc4n3)oc2c1 [Example 145]	6.8 nM
COc1cc(OCc2cccc(NC(=O)CC3CCCCC3)c2)c2cc(-c3cn4nc(OC)sc4n3)oc2c1 [Example 146]	7.5 nM
COc1cc(OCc2cccc(NC(=O)c3c(F)cccc3C(F)(F)F)c2)c2cc(-c3cn4nc(OC)sc4n3)oc2c1 [Example 147]	1.6 nM
COc1cc(OCc2cccc(NC(=O)c3cccnc3)c2)c2cc(-c3cn4nc(OC)sc4n3)oc2c1 [Example 148]	6.8 nM
COc1cc(OCc2cccc(NC(=O)c3cccc(C(F)(F)F)c3)c2)c2cc(-c3cn4nc(OC)sc4n3)oc2c1 [Example 149]	2 nM
COc1cc(OCc2cccc(NC(=O)C3CCCCC3)c2)c2cc(-c3cn4nc(OC)sc4n3)oc2c1 [Example 150]	2.3 nM
COc1cc(OCc2cccc(NC(=O)c3cccc(Cl)c3F)c2)c2cc(-c3cn4nc(OC)sc4n3)oc2c1 [Example 151]	3.4 nM
COc1cc(OCc2cccc(NC(=O)c3ccc(F)cc3F)c2)c2cc(-c3cn4nc(OC)sc4n3)oc2c1 [Example 152]	1.3 nM
COc1cc(OCc2cccc(NC(=O)c3ccc(C(F)(F)F)cc3)c2)c2cc(-c3cn4nc(OC)sc4n3)oc2c1 [Example 153]	0.99 nM
COc1cc(OCc2cccc(NC(=O)c3cc(F)ccc3F)c2)c2cc(-c3cn4nc(OC)sc4n3)oc2c1 [Example 154]	2.2 nM
COc1cc(OCc2cccc(NC(=O)c3ccno3)c2)c2cc(-c3cn4nc(OC)sc4n3)oc2c1 [Example 155]	2.3 nM
COc1cc(OCc2cccc(NC(=O)c3cccc(Cl)c3Cl)c2)c2cc(-c3cn4nc(OC)sc4n3)oc2c1 [Example 156]	1.7 nM
COc1cc(OCc2cccc(NC(=O)c3ccc(OC)c(C(F)(F)F)c3)c2)c2cc(-c3cn4nc(OC)sc4n3)oc2c1 [Example 157]	2.8 nM
COc1cc(OCc2cccc(NC(=O)c3cccc(-c4ccccc4)c3)c2)c2cc(-c3cn4nc(OC)sc4n3)oc2c1 [Example 158]	12 nM
COc1cc(OCc2cccc(NC(=O)c3cc(F)cc(F)c3)c2)c2cc(-c3cn4nc(OC)sc4n3)oc2c1 [Example 159]	1.6 nM
COc1cccc(C(=O)Nc2cccc(COc3cc(OC)cc4oc(-c5cn6nc(OC)sc6n5)cc34)c2)c1 [Example 160]	36 nM
COc1cc(OCc2cccc(NC(=O)c3ccc(C(F)(F)F)c(F)c3)c2)c2cc(-c3cn4nc(OC)sc4n3)oc2c1 [Example 161]	1.5 nM
COc1cc(OCc2cccc(NC(=O)c3c(OC)cccc3OC)c2)c2cc(-c3cn4nc(OC)sc4n3)oc2c1 [Example 162]	11 nM
COc1cc(OCc2cccc(NC(=O)c3ccc(C)c(F)c3)c2)c2cc(-c3cn4nc(OC)sc4n3)oc2c1 [Example 163]	2.1 nM
COc1cc(OCc2cccc(NC(=O)c3ccc(OC(F)F)cc3)c2)c2cc(-c3cn4nc(OC)sc4n3)oc2c1 [Example 164]	2 nM
COc1cc(OCc2cccc(NC(=O)C3CCOCC3)c2)c2cc(-c3cn4nc(OC)sc4n3)oc2c1 [Example 165]	4.6 nM
COc1cc(OCc2cccc(NC(=O)c3ccc(F)c(F)c3)c2)c2cc(-c3cn4nc(OC)sc4n3)oc2c1 [Example 166]	2.3 nM

The compounds below were run against PAR1 (Homo sapiens (Human), UniProt P25116) (assay: FLIPR assay, PAR1 agonist peptide response in PAR1/PAR4-expressing HEK293 cells). Conditions: routine test of agonist response, FLIPR assay of Example A.
Type: cell-based
Excerpt: as §1
FLIPR-based calcium mobilization assay in HEK293 cells was used to measure PAR4 antagonism, agonism, and selectivity against PAR1. The activity of the PAR4 antagonists of the present invention were tested in PAR4 expressing cells by monitoring H-Ala-Phe(4-F)-[…]NH2-induced intracellular calcium mobilization. Counter screens for agonist activity and PAR1 antagonist activity were also performed. Briefly, PAR1/PAR4-expressing HEK293 cells were grown in DMEM (Life Technology, Grand Island, N.Y.) containing 10% heat-inactivated FBS, 1% Penicillin-Streptomycin, 10 μg/mL blasticidin, and 100 μg/mL Zeocin at 37° C. with 5% CO2. […] Changes in fluorescence intensity were measured using a Functional Drug Screening System (FDSS, Hamamatsu, Japan) to determine agonist activities. […]

Sequence of PAR1 (P25116 22-425): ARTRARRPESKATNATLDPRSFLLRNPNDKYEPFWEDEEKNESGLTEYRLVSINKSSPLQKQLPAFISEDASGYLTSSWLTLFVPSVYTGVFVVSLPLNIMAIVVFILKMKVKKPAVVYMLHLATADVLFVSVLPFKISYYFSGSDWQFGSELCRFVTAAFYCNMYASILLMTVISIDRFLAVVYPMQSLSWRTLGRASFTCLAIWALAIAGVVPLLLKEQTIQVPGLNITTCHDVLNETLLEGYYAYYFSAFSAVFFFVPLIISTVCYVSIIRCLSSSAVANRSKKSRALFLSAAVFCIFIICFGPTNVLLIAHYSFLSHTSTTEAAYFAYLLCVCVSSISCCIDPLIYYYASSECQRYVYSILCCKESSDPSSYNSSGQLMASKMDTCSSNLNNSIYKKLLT

EC50	Compound
~2000 nM	SFFLRR [SFFLRR]
